Measurements as given in patent US20120135089A1, “E3 LIGASE INHIBITORS” (priority 2009, published 2012).
Entries after “also recorded” stand apart in the source; their conditions may differ.

Columns and labels:
[1] = test system: wild-type, p53−/− and p53−/−; mdm2−/− MEFs; experiment: Alamar Blue viability assay, mouse embryonic fibroblasts; format: cell-based; conditions: 48 hours
Procedure: (§1) RKO and RKO-E6 cells were seeded in 384-well plates and treated with a dilution series of MEL23 for 48 hours as indicated. Alamar Blue was added for 16 hours and fluorescence determined on a Victor3 Plate Reader. The median percent inhibition of five replicates was determined and normalized to a no treatment control. One standard deviation is shown. […] Cells were seeded in 384-well plates and treated with a dilution series of MEL23 for 48 hours at the indicated concentrations. Alamar Blue was added for 16 hours and fluorescence determined on a Victor3 Plate Reader. The median percent inhibition of five replicates was determined and normalized to a no treatment control. One standard deviation is shown.
(§2) Cells were seeded in 384-well black clear-bottom plates (Corning Inc., Corning, N.Y., Cat. No. 07-200-655). Cells were then treated with the indicated concentration of compound. Plates were incubated for 48 hours at 37° C. Alamar Blue (Invitrogen, Cat. No. DAL1100) was added to each well to a final concentration of 10% and incubated at 37° C. for 16 hours. Fluorescence intensity was determined using the Victor3 Plate Reader (PerkinElmer). Median percent survival or growth inhibition was calculated and normalized to a no treatment control.

[2] = target: T1, Roc1/Cul1 E3 RING domain ligase (Homo sapiens, UniProt P62877+Q13616); experiment: in vitro Roc1/Cul1 E3 ligase ubiquitination assay; format: biochemical
T1 construct: gift from Zhen-Qiang Pan, Mount Sinai School of Medicine
Procedure: (§3) These assays were performed with 100 ng of full-length Flag-Mdm2 or 200 ng of Flag-Mdm2/HA-MdmX complexes (100 ng of each protein as each are present in a 1:1 ratio, when purified), ^32P-labeled ubiquitin, UbCH5c, and E1. Following a 30-minute incubation at 37° C., reactions were terminated and resolved on a SDS-PAGE gel followed by autoradiography. PC indicates positive control, and NC indicates negative control with UbCH5C eliminated from the reaction. The gels were quantified by phosphoimaging using ImageQuant software (GE Healthcare Bio-Sciences Corp., Piscataway, N.J.). […] Reactions were performed as in FIG. 11A except 500 ng GST-Mdm2 (residues 400-491) and GST-MdmX (residues 400-490) were used for ubiquitin polymerization. […] Reactions were performed as in FIG. 11A except with 3 μg of the Roc1/Cul1 ligase complex. Ubiquitination activity of the complex was tested in the presence of increasing concentrations of MEL23 and MEL24.
Ubiquitination assays in the presence of increasing concentrations of MEL compounds were performed with 1.5 μg of the Roc1-Cul1 ligase complex, ^32P-labeled ubiquitin, UbCH5c, and E1. Following 30 min incubation at 37° C., reactions were terminated and resolved on a SDS-PAGE gel (FIG. 31A) followed by autoradiography and quantitation (FIG. 31B). […]

[3] = test system: U2OS (p53 wild-type) and H1299 (p53 null) cells; experiment: combination viability assay, excess over Bliss independence; format: cell-based, human
Procedure: All values were normalized to no treatment. […] Percent cell death was determined by normalization to a no treatment control. Bliss Independence was determined by the formula C=A+B−A*B, where A is treatment with one compound alone and B is treatment with the second compound alone.
Cells were then treated with the indicated concentration of compound. […] Fluorescence intensity was determined using the Victor3 Plate Reader (PerkinElmer). Median percent survival or growth inhibition was calculated and normalized to a no treatment control.
The excess over the predicted Bliss independence was determined by subtracting the predicted Bliss effect for each treatment from the experimentally determined growth inhibition for the same treatment.

RKO and RKO-E6 cells = experiment: Alamar Blue viability assay, RKO and RKO-E6 cells; format: cell-based, human; conditions: 48 hours, dilution series
Procedure: as §1, §2

[4] = target: T2, Flag-Mdm2-HA-MdmX complex (Homo sapiens, UniProt O15151+Q00987); experiment: in vitro ubiquitination assay, Flag-Mdm2/HA-MdmX complex; format: biochemical
T2 construct: unlike the full-length complex, which was produced through co-expression of Mdm2 and MdmX in SF9 cells; made in house; host or cells: Sf9 insect cells, co-infection; purified on M2-agarose, then HA-agarose
Procedure: These assays were performed with 100 ng of full-length Flag-Mdm2 or 200 ng of Flag-Mdm2/HA-MdmX complexes (100 ng of each protein as each are present in a 1:1 ratio, when purified), ^32P-labeled ubiquitin, UbCH5c, and E1. Following a 30-minute incubation at 37° C., reactions were terminated and resolved on a SDS-PAGE gel followed by autoradiography. PC indicates positive control, and NC indicates negative control with UbCH5C eliminated from the reaction. The gels were quantified by phosphoimaging using ImageQuant software (GE Healthcare Bio-Sciences Corp., Piscataway, N.J.). […]
Ubiquitin reactions contain 50 ng E1, 1 μg PK-ubiquitin, 50 ng His-UbCH5C, and 100 ng Flag-Mdm2. […] The products were resolved by SDS-PAGE and analyzed by Western blotting with anti-p53, anti-Mdm2 SMP14, 2A10, 3G5 mix, or anti-MdmX. […] The graph represents the quantification of the Mdm2-ubiquitin species, normalized to the positive control. […]
Full-length Mdm2 in vitro ubiquitination reactions were performed in 15 μl reaction mixtures containing 50 mM TrisHC1 pH 7.5, 5 mM MgCl2, 2 mM NaF, 2 mM ATP, 0.6 mM DTT, 50 ng E1 (Boston Biochem, Cat. No. E-305), 1 μg PK-ubiquitin, 50 ng His-UbCH5C, and 100 ng Flag-Mdm2. […] The products were resolved by SDS-PAGE and analyzed by Western blot with anti-p53, anti-Mdm2 SMP14, 2A10, 3G5 mix, or anti-MdmX antibodies. […]

[5] = target: T3, Mdm2 RING-MdmX RING hetero-complex (Homo sapiens, UniProt O15151+Q00987); experiment: in vitro ubiquitination assay, Mdm2 RING-MdmX RING; format: biochemical
T3 construct: 500 ng GST-Mdm2 (residues 400-491); GST-MdmX (residues 410-490); made in house
Procedure: as §3
Radiolabeled in vitro ubiquitination assays were carried out in 30 μl reaction mixtures with ^32P-labeled ubiquitin. 500 ng GST-Mdm2 (residues 400-491) and GST-MdmX (residues 410-490) were used for the RING-RING reactions. The products of the reaction were resolved on a SDS-PAGE gel and visualized by autoradiography.

T2 sequence (Q00987 whole entry): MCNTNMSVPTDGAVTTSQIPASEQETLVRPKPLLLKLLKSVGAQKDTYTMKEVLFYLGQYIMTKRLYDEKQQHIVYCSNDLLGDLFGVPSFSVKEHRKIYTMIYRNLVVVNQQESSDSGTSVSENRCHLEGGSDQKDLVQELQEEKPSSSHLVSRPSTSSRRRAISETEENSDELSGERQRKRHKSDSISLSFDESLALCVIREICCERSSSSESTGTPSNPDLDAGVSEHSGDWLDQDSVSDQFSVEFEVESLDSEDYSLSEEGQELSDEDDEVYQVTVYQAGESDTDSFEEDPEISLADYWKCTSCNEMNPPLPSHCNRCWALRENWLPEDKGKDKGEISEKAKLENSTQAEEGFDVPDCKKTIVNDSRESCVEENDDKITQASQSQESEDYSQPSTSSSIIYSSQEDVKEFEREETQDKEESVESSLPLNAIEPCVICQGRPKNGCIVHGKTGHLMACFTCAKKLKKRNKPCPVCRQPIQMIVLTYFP
T2 sequence (O15151 whole entry): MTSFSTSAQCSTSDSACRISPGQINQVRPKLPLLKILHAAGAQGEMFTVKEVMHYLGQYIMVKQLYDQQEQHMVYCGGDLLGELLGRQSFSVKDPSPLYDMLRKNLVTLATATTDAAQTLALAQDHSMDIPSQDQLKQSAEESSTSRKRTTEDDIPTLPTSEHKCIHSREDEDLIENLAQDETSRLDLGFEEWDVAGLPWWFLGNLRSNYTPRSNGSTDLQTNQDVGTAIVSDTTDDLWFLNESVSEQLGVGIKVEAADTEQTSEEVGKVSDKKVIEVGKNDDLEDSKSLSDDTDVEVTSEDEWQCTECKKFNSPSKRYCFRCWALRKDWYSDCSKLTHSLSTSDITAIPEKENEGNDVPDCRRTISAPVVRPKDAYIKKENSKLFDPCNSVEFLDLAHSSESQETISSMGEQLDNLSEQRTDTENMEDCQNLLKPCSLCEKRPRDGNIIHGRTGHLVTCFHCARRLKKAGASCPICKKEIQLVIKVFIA
T1 sequence (P62877 whole entry, the tested form may be a part): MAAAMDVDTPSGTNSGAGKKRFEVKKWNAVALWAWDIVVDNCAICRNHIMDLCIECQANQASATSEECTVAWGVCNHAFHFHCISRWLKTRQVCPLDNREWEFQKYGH
T1 sequence (Q13616 whole entry, the tested form may be a part): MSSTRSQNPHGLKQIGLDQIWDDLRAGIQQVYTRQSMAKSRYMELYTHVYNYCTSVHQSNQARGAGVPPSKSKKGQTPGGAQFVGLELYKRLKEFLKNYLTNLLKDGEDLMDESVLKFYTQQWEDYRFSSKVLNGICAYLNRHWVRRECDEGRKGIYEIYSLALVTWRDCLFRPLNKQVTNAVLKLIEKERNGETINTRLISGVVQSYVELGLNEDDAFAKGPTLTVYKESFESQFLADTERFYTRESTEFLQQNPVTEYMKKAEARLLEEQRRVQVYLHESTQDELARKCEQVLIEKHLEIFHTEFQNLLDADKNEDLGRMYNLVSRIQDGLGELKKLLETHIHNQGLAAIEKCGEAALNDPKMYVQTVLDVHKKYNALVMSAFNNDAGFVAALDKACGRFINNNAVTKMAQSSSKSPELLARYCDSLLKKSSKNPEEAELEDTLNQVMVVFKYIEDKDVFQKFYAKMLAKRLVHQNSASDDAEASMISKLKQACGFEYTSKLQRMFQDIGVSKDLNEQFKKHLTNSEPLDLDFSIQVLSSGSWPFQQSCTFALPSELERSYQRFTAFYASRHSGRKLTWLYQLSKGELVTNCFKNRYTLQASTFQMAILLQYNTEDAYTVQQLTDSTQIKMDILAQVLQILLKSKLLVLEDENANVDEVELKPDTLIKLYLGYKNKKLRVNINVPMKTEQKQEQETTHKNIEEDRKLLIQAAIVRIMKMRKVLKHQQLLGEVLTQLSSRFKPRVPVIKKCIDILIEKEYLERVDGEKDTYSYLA
T3 sequence (Q00987 400-491): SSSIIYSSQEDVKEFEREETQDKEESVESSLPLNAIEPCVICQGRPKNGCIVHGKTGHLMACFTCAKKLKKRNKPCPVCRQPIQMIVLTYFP
T3 sequence (O15151 410-490): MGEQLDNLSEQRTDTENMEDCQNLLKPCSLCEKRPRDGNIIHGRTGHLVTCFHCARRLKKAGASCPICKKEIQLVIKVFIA

| SMILES | survival of p53−/− MEFs ([1]; dilution series) | survival of wild-type MEFs ([1]; dilution series) | survival of p53−/− mdm2−/− MEFs ([1]; highest concentration tested) | Roc1/Cul1 E3 ligase activity in vitro [2] | synergy of MEL23 with Nutlin-3 on viability ([3]; 48 hours, excess over Bliss independence) | synergy with DNA damaging agents in p53-null cells ([3]; H1299 (p53-null)) | synergy with camptothecin or etoposide on viability ([3]; U2OS and H1299, 48 hours, excess over Bliss independence) | RKO cell survival (RKO and RKO-E6 cells) | RKO-E6 cell survival (RKO and RKO-E6 cells) | ligase activity of the Mdm2-MdmX complex in vitro [4] | activity of the Mdm2-MdmX complex toward p53 in vitro ([4]; Western blot) | ubiquitination of the Mdm2 RING-MdmX RING hetero-complex [5] |
| --- | --- | --- | --- | --- | --- | --- | --- | --- | --- | --- | --- | --- |
| CCCCn1c(=O)[nH]c(O)c(C2NCCc3c2[nH]c2ccccc32)c1=O (stereo not shown) [MEL23] | also decreased | survival of the wild-type cells decreased the greatest | Only a small decrease in cell survival | no inhibition | Synergy between MEL23 and Nutlin-3 occurred, but to a lesser extent than the combination of MEL23 and DNA-damaging agents | synergized with DNA damaging agents; also recorded: cooperated with DNA-damaging agents in p53-null cells to a small, yet reproducible, extent | synergistic effect on viability | decreased in a dose-dependent manner | remained largely unaffected | significantly decreased the overall ligase activity; also recorded: inhibited | inhibited the activity of the Mdm2-MdmX complex toward p53 | inhibited |
| Cn1c(O)c(C2NCCc3c2[nH]c2ccccc32)c(=O)n(C)c1=O (stereo not shown) [MEL24] | – | – | – | no inhibition | – | – | – | – | – | – | – | – |
